# From US6861256B2, “Therapeutic and diagnostic tools for impaired glucose tolerance conditions” (The General Hospital Corporation, priority 1997, dated 2005)
# “Also recorded” adds a separate entry of the source.
# How the values were obtained:
# C. elegans dauers = assay: Dauer recovery assay on drug plates; type: in vivo; conditions: for dauer recovery: C. elegans dauers induced by mutation or pheromone, drug plates; for dauer recovery of daf-2 dauers: daf-2(e1370) mutant dauers, all concentrations
# Procedure: Minimal media plates were used for the drug assays: 3.0 g NaCl, 20 g agarose (Sigma-Type II #A6877) and 970 ml of water. The autoclaved solution was cooled to 50-55° C. before 25 ml of 1M KPO4 (pH 6.0), 1.0 ml 1M CaCl2, 1.0 ml of 1M MgSO4, and 1 ml of 5 mg/ml cholesterol were added. In some assays, Escherichia coli (DH5α) bacteria arrested with streptomycin was added to each plate.
# In some experiments, 100-200 eggs or synchronized L1s were put onto the drug plates. For all experiments described herein, about 10,000 L1s were placed in 10 ml of S Medium containing 1-2 ml of a 0.4% (w/v) solution of Escherichia coli DH5α bacteria in M9 solution (Wood (1988) (Cold Spring Harbor Laboratory Press, Cold Spring Harbor, N.Y.)) arrested with streptomycin, in a 25 ml flask on a rotating heated water bath at 25° C. For wild-type N2 dauers, 600 μl of the 0.4% bacterial solution and pheromone was also added to flask as described in Gottlieb and Ruvkun (1994) Genetics 137:107120. The pheromone preparation is a solution prepared as follows. Animals were grown in a large flask for several generations, and then spun down. The supernatant was boiled down to a brownish powder and then ethanol extracted. After 72 hours of liquid growth, animals were centrifuged and the supernatant removed. Animals were then resuspended in a 15 ml tube with a pre-heated 25° C. solution of 1% SDS and tubes were placed on a rocker at 25° C. for 30 minutes. Animals were centrifuged and the SDS removed. Animals were washed with either M9 or S medium (Wood (1988) (Cold Spring Harbor Laboratory Press, Cold Spring Harbor, N.Y.)) 4-6 times. After a final spin, 100-200 dauers were placed onto the drug plates without food. 24 and 48 hours later, plates were scored for the number of dauers and non-dauer adults.
# For each strain tested, a control plate without any drug, with and without food was also tested. […] The assay was performed at 25° C., which means that the daf-c mutants are still under full dauer inducing conditions.
# [1] = test system: C. elegans unc-86 mutants; assay: 5HT accumulation in the NSM neuron of unc-86 mutants; type: in vivo
# A. caninum L3 = assay: Drug assay in A. caninum (resumption of feeding of infective L3); type: in vivo, Ancylostoma caninum; conditions: for dauer recovery: A. caninum L3, agonist without serum and GSM
# Procedure: Hookworm infective L3 animals were collected from 1-4 wk old coproculture by the Baermann technique, and decontaminated with 1% HCL in BU buffer (50 mM Na2PO4/22 mM KH2PO4/70 mM NaCl, pH 6.8) (Hawdon and Schad (1991) in Developmental Adaptations in Nematodes., ed. C. A. Toft, A. A. a. L. B. (Oxford University Press, Oxford), pp. 274-298; and Hawdon and Schad (1991) J. Helm. Soc. Wash. 58:140-142) for 30 minutes at 22° C. Approximately 250 L3 animals were incubated in individual wells of a 96-well tissue culture plate containing 0.1 ml RPMI1640 tissue culture medium, supplemented with 0.25 mM HEPES pH 7.2, 100 U/ml penicillin, 100 μg/ml streptomycin, 100 μg/ml gentamycin, and 2.5 μg/ml amphotericin B. The L3 animals were activated to resume development and feeding by including 10% (v/v) canine serum and 25 mM S-methyl-glutathione (GSM; Hawdon et al. (1995) Exper. Parasitol. 80:205-211). Non-activated L3 animals were incubated in RPMI alone (i.e., without the stimulus). Stock solutions of the drugs were made in RPMI, and included in the incubation at the indicated concentrations. […] The L3 animals were incubated at 37° C. 5% CO2 for 24 hours. The percentage of feeding L3 animals was determined by incubating the L3 animals with 2.5 mg/ml FITC-BSA for 2-3 hours, followed by counting the number of L3 animals that had ingested the labeled BSA by microscopic examination under epi-fluorescent illumination (Hawdon and Schad (1990) J. Parasit. 76:394-398). Each treatment was done in triplicate, and each experiment was repeated at least once.
# [2] = test system: C. elegans DAF-16 with the serine or threonine of the Akt/PKB consensus sites mutated to alanine
# C. elegans DAF-16 = test system: T1, C. elegans DAF-16
# T1 sequence: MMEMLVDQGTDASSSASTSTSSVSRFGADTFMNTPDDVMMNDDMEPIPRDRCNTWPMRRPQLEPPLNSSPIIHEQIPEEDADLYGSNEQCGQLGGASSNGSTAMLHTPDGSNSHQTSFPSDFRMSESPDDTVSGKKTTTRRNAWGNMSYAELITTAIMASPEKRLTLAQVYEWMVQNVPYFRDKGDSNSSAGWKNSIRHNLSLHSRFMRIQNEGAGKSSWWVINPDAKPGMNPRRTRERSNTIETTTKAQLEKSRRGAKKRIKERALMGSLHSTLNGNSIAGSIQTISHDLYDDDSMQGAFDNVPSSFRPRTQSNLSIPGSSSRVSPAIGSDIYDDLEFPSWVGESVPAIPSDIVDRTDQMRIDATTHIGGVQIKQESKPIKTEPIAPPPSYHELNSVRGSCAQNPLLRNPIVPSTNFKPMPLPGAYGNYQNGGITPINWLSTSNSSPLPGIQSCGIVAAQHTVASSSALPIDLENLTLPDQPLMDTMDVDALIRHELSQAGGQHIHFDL
# [3] = wild-type pheromone-induced dauers
compound,measurement,setting,value
"c1ccc([C@H]2CN3CCSC3=N2)cc1 [Levamisole, levamisole]",dauer recovery,C. elegans dauers,no effect on dauer recovery
CNCCC(Oc1ccc(C(F)(F)F)cc1)c1ccccc1 (centres unmarked) [Prozac],5HT accumulation in the NSM,[1],causes 5HT accumulation in the NSM to disappear
COC(=O)C1=CCCN(C)C1 [arecoline],dauer recovery,C. elegans dauers,promoted dauer recovery; also recorded: promoted recovery of dauers induced by mutation as well as pheromone
same,maximal response lower than for the other agonists,"C. elegans dauers; C. elegans, FIG. 44B",10 fold lower
same,dauer recovery of daf-2 dauers,C. elegans dauers,fails to recover at all concentrations
same,dauer recovery,A. caninum L3,promotes dauer recovery
same,maximal response lower than for the other agonists,"A. caninum L3; A. caninum, FIG. 44B",10 fold lower
CN1[C@@H]2CC[C@H]1C[C@@H](OC(=O)C(CO)c1ccccc1)C2 (some centres unmarked) [atropine],inhibition of muscarinic agonist-induced dauer recovery,"C. elegans dauers; C. elegans, 1 mM oxotremorine, increasing atropine",completely inhibited; also recorded: all of the drug-induced dauer recovery was inhibited
same,recovery induced by oxotremorine in combination with atropine,"C. elegans dauers; daf-7(e1372) dauers, 1 mM oxotremorine + 1 mM atropine",5%
same,oxotremorine response in presence of atropine,"C. elegans dauers; daf-7(e1372) dauers, 1 mM oxotremorine + 5 mM atropine",completely abolished
same,dauer larvae recovered,"C. elegans dauers; pheromone-induced dauers, bacterial food plus atropine, 25° C.",21%
same,recovery with arecoline plus atropine,"A. caninum L3; A. caninum L3, 0.5 mM arecoline and 1.0 mM atropine (increasing atropine in FIG. 44C)",completely inhibited; also recorded: failed to recover
same,recovery / resumption of feeding,"A. caninum L3; A. caninum L3, 10% serum and 25 mM GSM, atropine 0.5 mM",completely inhibited recovery
same,inhibition at 500 µM,"A. caninum L3; Ancylostoma caninum, read-out: inhibition of recovery",99.5%
C[N+](C)(C)CCOC(N)=O [carbachol],dauer recovery,C. elegans dauers,promoted recovery of dauers induced by mutation as well as pheromone
C[C@@H]1O[C@H](C[N+](C)(C)C)C[C@H]1O [muscarine],dauer recovery,C. elegans dauers,promoted dauer recovery
O=C1CCCN1CC#CCN1CCCC1 [oxotremorine],dauer recovery,C. elegans dauers,promoted dauer recovery; also recorded: promoted recovery of dauers induced by mutation as well as pheromone
same,Emax at 1000 µM,"C. elegans dauers; Caenorhabditis elegans, daf-7(e1372), daf-10(e1387) double mutant, 1 mM oxotremorine, read-out: maximum response, recovery",13%
same,dauers that recover,C. elegans dauers; daf-1(m40) dauers in oxotremorine,30%
same,dauer recovery of daf-2 dauers,C. elegans dauers,fails to recover at all concentrations
same,dauers that recover,C. elegans dauers; daf-4(m63) dauers in oxotremorine,50%
same,concentration of maximum recovery,C. elegans dauers; daf-7(e1372) dauers,5 mM
same,dauers recovered,"C. elegans dauers; daf-7(e1372) dauers, 1 mM oxotremorine",40%
same,concentration of maximum recovery,C. elegans dauers; [3],1 mM
same,dauer recovery,A. caninum L3,promotes dauer recovery
same,concentration of maximum recovery,A. caninum L3; A. caninum L3 dauers,5 mM
CC[C@@H]1C(=O)OC[C@@H]1Cc1cncn1C [pilocarpine],dauer recovery,C. elegans dauers,promoted dauer recovery; also recorded: promoted recovery of dauers induced by mutation as well as pheromone
same,concentration of maximum recovery,C. elegans dauers; daf-7(e1372) dauers,5 mM
same,concentration of maximum recovery,C. elegans dauers; [3],1 mM
same,dauer recovery,A. caninum L3,failed to recover
human AKT,in vitro phosphorylation,[2],in vitro phosphorylation of DAF-16 (or fragments of DAF-16) is abolished
same,in vitro phosphorylation,C. elegans DAF-16,human AKT will phosphorylate C. elegans DAF-16
